Reference: the supplement of paper PMC10307832

Key:
Experiment in all cases: relative viability (nuclei count vs DMSO), 5 days (fraction); higher = more cells survive
[1] = compound: C1=CC=C(C(=C1)C2=CC=C(C=C2)C3=CSC4=C3C(=C(C(=O)N4)C#N)O)O + Nc1ncn([C@H]2C[C@H](O)[C@@H](CO)O2)c(=O)n1 [Decitabine] (partner 2 µM)
Method in brief: (§1)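 Relative viability is defined as nuclei in treated wells over nuclei in vehicle wells. Duplicate plates were run and medians reported. Lung cancer cell lines in 1536-well plates were dosed by pin tool one day after seeding, with one drug or with a fixed anchor-drug dose plus five library-drug doses (not always all listed) in √10 steps, and nuclei were counted after 5 days.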

TGX 221 + Trametinib = compound: CC1=CN2C(=O)C=C(N=C2C(=C1)C(C)NC3=CC=CC=C3)N4CCOCC4 [TGX 221] + CC(=O)Nc1cccc(-n2c(=O)n(C3CC3)c(=O)c3c(Nc4ccc(I)cc4F)n(C)c(=O)c(C)c32)c1 [Trametinib] (partner 0.02 µM)
Method in brief: as §1

TGX 221 + Decitabine = compound: CC1=CN2C(=O)C=C(N=C2C(=C1)C(C)NC3=CC=CC=C3)N4CCOCC4 [TGX 221] + Nc1ncn([C@H]2C[C@H](O)[C@@H](CO)O2)c(=O)n1 [Decitabine] (partner 2 µM)
Method in brief: as §1

Ricolinostat + Olaparib = compound: O=C(CCCCCCNC(=O)c1cnc(N(c2ccccc2)c2ccccc2)nc1)NO [Ricolinostat] + O=C(c1cc(Cc2n[nH]c(=O)c3ccccc23)ccc1F)N1CCN(C(=O)C2CC2)CC1 [Olaparib] (partner 8 µM)
Method in brief: as §1

## NCI-H1792
[1]; first compound 0.253 µM
  relative viability: 0.715
[1]; first compound 0.8 µM
  relative viability: 0.482
[1]; first compound 2.53 µM
  relative viability: 0.617
[1]; first compound 8 µM
  relative viability: 0.438
TGX 221 + Trametinib; first compound 0.08 µM
  relative viability: 0.436
TGX 221 + Trametinib; first compound 0.253 µM
  relative viability: 0.414
TGX 221 + Trametinib; first compound 0.8 µM
  relative viability: 0.366
TGX 221 + Trametinib; first compound 2.53 µM
  relative viability: 0.277
TGX 221 + Trametinib; first compound 8 µM
  relative viability: 0.313
TGX 221 + Decitabine; first compound 0.08 µM
  relative viability: 0.522
TGX 221 + Decitabine; first compound 0.253 µM
  relative viability: 0.479
TGX 221 + Decitabine; first compound 0.8 µM
  relative viability: 0.549
TGX 221 + Decitabine; first compound 2.53 µM
  relative viability: 0.454
TGX 221 + Decitabine; first compound 8 µM
  relative viability: 0.362
Ricolinostat + Olaparib; first compound 0.253 µM
  relative viability: 0.391
Ricolinostat + Olaparib; first compound 0.8 µM
  relative viability: 0.284
Ricolinostat + Olaparib; first compound 2.53 µM
  relative viability: 0.041
